Assay type in all cases: binding
Test [1] concerns the target T1, wt bradavidin (Bradyrhizobium diazoefficiens, UniProt Q89IH6).
T1 construct: gene blr5658; E. coli BL21-AI periplasm; homotetramer
T1 sequence (Q89IH6 26-163): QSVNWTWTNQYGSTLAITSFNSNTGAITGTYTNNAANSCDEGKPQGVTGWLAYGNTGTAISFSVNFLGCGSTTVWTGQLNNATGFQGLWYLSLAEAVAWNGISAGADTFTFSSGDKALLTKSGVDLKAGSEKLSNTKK
Description: differential scanning calorimetry. Conditions: 50 mM sodium phosphate pH 7.0, 100 mM NaCl; 15 µM protein, ~3:1 biotin:subunit; 120 °C/hour. (DSC measures the heat that a sample takes up or gives off during a temperature scan.)

Test [2] has as its target T2, core-bradavidin (Bradyrhizobium diazoefficiens, UniProt Q89IH6).
T2 construct: gene blr5658; C-terminally truncated core form, 118 residues (truncation between Leu118 and Leu119), lacks Brad-tag; E. coli BL21-AI periplasm; homotetramer
Description: isothermal titration calorimetry. The source says: isothermal titration calorimetry on core-bradavidin
(In general: In ITC the heat of successive injections is recorded.)

Test [3] has as its target T1, wt bradavidin. Nature of the test: isothermal titration calorimetry. The text has this:
isothermal titration calorimetry on wt bradavidin

Test [4] has as its target T2, core-bradavidin. Description: differential scanning calorimetry. Conditions: 50 mM sodium phosphate pH 7.0, 100 mM NaCl; 15 µM protein, ~3:1 biotin:subunit; 120 °C/hour.

The term Kd denotes the equilibrium constant for the complex coming apart.

For `O=C(O)CCCC[C@@H]1SC[C@@H]2NC(=O)N[C@@H]21` [D-biotin], the Tm with biotin at wt bradavidin [1] is 101.7±0.1 °C; at core-bradavidin [4], 97.9±0.2 °C. Further, the results for the Kd on core-bradavidin [2] and on wt bradavidin [3] were less than 0.001 µM and 0.3 µM, respectively.

The values are drawn from PMC3344845, “Structure of Bradavidin – C-Terminal Residues Act as Intrinsic Ligands” (PLoS ONE, 2012).
